The source of these data is patent US9896445B2, “Heterocyclic inhibitors of ERK1 and ERK2 and their use in the treatment of cancer” (Asana Biosciences, LLC, priority 2015, dated 2018).

In one assay the target is T1, ERK1 (Homo sapiens, UniProt P27361).
T1 construct: purchased Jubilant Biosys
Kind of assay: ERK1 HTRF (biochemical) assay. How it is done:
ERK1 and ERK2 HTRF (Biochemical) Assays
These assays employed a homogeneous time resolved fluorescence (HTRF) technique. […] The plate was incubated at room temperature for 60 min with shaking. […] The IC50 values (half maximal inhibitory concentration values) were subsequently determined using a sigmoidal dose-response curve (variable slope) in GraphPad Prism® 5 software.
A general note: In TR-FRET formats the signal depends on donor and acceptor labels being close together.

A further assay concerns the target T2, ERK2 (Homo sapiens, UniProt P28482).
T2 construct: purchased Jubilant Biosys
Kind of assay: ERK2 HTRF (biochemical) assay. In short, it runs like this: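 Compounds were tested as half-log dilutions from 0.0005 to 10 uM in Tris pH 7.5/MgCl2 buffer, with a substrate mix of 1 uM biotin-MBP peptide and 24 uM ATP and an enzyme mix of 25 nM ERK2. Reaction ran 60 min at room temperature. Phospho-MBP was detected by HTRF (Eu-anti-phospho-MBP/SA-APC, 665/620 nm), and IC50 was fitted with a variable-slope sigmoidal curve.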

T2 sequence (P28482 whole entry): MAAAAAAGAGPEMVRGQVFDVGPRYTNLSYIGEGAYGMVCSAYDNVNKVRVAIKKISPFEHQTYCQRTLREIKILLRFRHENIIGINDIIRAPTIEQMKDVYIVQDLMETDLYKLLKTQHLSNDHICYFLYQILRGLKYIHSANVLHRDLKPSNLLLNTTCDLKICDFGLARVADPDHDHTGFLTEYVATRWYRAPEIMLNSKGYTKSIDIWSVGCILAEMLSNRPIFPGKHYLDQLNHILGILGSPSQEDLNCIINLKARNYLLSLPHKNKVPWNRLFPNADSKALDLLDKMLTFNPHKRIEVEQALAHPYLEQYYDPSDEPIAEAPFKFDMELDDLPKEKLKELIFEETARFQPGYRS
T1 sequence (P27361 whole entry): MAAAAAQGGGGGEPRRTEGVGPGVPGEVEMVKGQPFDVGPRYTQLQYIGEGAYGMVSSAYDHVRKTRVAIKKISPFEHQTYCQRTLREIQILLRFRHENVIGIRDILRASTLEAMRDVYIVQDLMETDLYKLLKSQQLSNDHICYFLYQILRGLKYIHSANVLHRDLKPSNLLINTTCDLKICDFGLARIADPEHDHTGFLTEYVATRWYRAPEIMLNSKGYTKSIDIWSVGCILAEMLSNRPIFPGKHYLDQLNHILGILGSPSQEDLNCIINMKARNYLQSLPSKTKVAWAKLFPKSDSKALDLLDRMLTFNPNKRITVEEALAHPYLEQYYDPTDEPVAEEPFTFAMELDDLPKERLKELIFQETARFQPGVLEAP

For the compound `Cc1cnc(NC2CCOCC2)nc1-n1cnc(C(=O)NCc2ccccc2CO)c1` [Example 287, N-(2-(hydroxy-methyl)benzyl)-1-(5-methyl-2-((tetrahydro-2H-pyran-4-yl)amino)-pyrimidin-4-yl)-1H-imidazole-4-carboxamide], the figures for the IC50 on ERK1 (HTRF) and against ERK2 (HTRF) were < 0.05 µM and ≤ 0.05 µM, respectively.

As for `Cc1cnc(NC2CC(F)(F)C2)nc1-n1cnc(C(=O)N[C@H](CN)c2cc(F)cc(Cl)c2)c1` [Example 288, (S)-N-(2-amino-1-(3-chloro-5-fluoro-phenyl)ethyl)-1-(2-((3,3-difluoro-cyclobutyl)amino)-5-methylpyrimidin-4-yl)-1H-imidazole-4-carboxamide], the results for the IC50 against ERK1 (HTRF) and against ERK2 (HTRF) were < 0.05 µM and ≤ 0.05 µM, respectively.

As for `Cc1cnc(NC2CC(F)(F)C2)nc1-n1cnc(C(=O)N[C@@H](CN)c2cc(F)cc(Cl)c2)c1` [Example 289, (R)-N-(2-amino-1-(3-chloro-5-fluoro-phenyl)ethyl)-1-(2-((3,3-difluoro-cyclobutyl)amino)-5-methylpyrimidin-4-yl)-1H-imidazole-4-carboxamide], the half-inhibitory concentration (IC50) (commonly the concentration that gives 50% inhibition) against ERK1 (HTRF) lay within 0.1 to 0.5 µM; against ERK2 (HTRF), 0.05 to 0.1 µM.

Consider `Cc1cnc(NC2CC=CCC2)nc1-n1cnc(C(=O)N[C@H](CN)c2cccc(Cl)c2)c1` (stereo partly drawn) [Example 292, N-((S)-2-amino-1-(3-chlorophenyl)-ethyl)-1-(2-(cyclohex-3-en-1-ylamino)-5-methyl-pyrimidin-4-yl)-1H-imidazole-4-carboxamide], for which the IC50 at ERK1 (HTRF) is < 0.05 µM; at ERK2 (HTRF) it was ≤ 0.05 µM.

`Cc1cnc(NC2CCOCC2)nc1-n1cnc(C(=O)NCc2ccccc2C(C)(C)O)c1` [Example 293, N-(2-(2-hydroxy-propan-2-yl)benzyl)-1-(5-methyl-2-((tetrahydro-2H-pyran-4-yl)amino)-pyrimidin-4-yl)-1H-imidazole-4-carboxamide]: the results for the IC50 at ERK1 (HTRF) and against ERK2 (HTRF) were < 0.05 µM and ≤ 0.05 µM, respectively.

`Cc1cnc(NC2CCOCC2)nc1-n1cnc(C(=O)NCc2sccc2CN)c1` [Example 294, N-((3-(amino-methyl)thiophen-2-yl)methyl)-1-(5-methyl-2-((tetrahydro-2H-pyran-4-yl)amino)-pyrimidin-4-yl)-1H-imidazole-4-carboxamide]: the values for the IC50 against ERK1 (HTRF) and at ERK2 (HTRF) were < 0.05 µM and ≤ 0.05 µM, respectively.

`Cc1cnc(NC2CCOCC2)nc1-n1cnc(C(=O)N[C@H](CO)c2cc(F)cc(Cl)c2)c1` [Example 295, (S)-N-(1-(3-chloro-5-fluorophenyl)-2-hydroxyethyl)-1-(5-methyl-2-((tetrahydro-2H-pyran-4-yl)amino)-pyrimidin-4-yl)-1H-imidazole-4-carboxamide]: the IC50 is < 0.05 µM at ERK1 (HTRF) and ≤ 0.05 µM against ERK2 (HTRF).

As to `Cc1cnc(NC2CCN(C)CC2)nc1-n1cnc(C(=O)N[C@H](CO)c2cccc(Cl)c2)c1` [Example 296, (S)-N-(1-(3-chlorophenyl)-2-hydroxyethyl)-1-(5-methyl-2-((1-methylpiperidin-4-yl)amino)-pyrimidin-4-yl)-1H-imidazole-4-carboxamide], the IC50 against ERK1 (HTRF) was < 0.05 µM; against ERK2 (HTRF), ≤ 0.05 µM.

As for `Cc1cnc(NC2CCOCC2)nc1-n1cnc(C(=O)N[C@H](CNCc2ccc[nH]2)c2cccc(Cl)c2)c1` [Example 306, (S)-N-(2-(((1H-pyrrol-2-yl)-methyl)amino)-1-(3-chlorophenyl)-ethyl)-1-(5-methyl-2-((tetrahydro-2H-pyran-4-yl)amino)-pyrimidin-4-yl)-1H-imidazole-4-carboxamide], the IC50 is < 0.05 µM against ERK1 (HTRF) and ≤ 0.05 µM at ERK2 (HTRF).

For the compound `Cc1cnc(NC2CCOCC2)nc1-n1cnc(C(=O)NCc2cccc(Cl)n2)c1` [Example 307, N-((6-chloro-pyridin-2-yl)methyl)-1-(5-methyl-2-((tetrahydro-2H-pyran-4-yl)amino)-pyrimidin-4-yl)-1H-imidazole-4-carboxamide], the IC50 is < 0.05 µM on ERK1 (HTRF) and ≤ 0.05 µM on ERK2 (HTRF).

Take `Cc1cnc(NC2CCOCC2)nc1-n1cnc(C(=O)N[C@H](CNC2CCOCC2)c2cccc(Cl)c2)c1` [Example 308, (S)-N-(1-(3-chlorophenyl)-2-((tetrahydro-2H-pyran-4-yl)amino)-ethyl)-1-(5-methyl-2-((tetrahydro-2H-pyran-4-yl)amino)-pyrimidin-4-yl)-1H-imidazole-4-carbox amide]: the values for the IC50 against ERK1 (HTRF biochemical assay) and on ERK2 (HTRF biochemical assay) were < 0.05 µM and ≤ 0.05 µM, respectively.

Take `Cc1cnc(NC2CCOCC2)nc1-n1cnc(C(=O)NCc2cccc(Cl)c2F)c1` [Example 309, N-(3-chloro-2-fluorobenzyl)-1-(5-methyl-2-((tetrahydro-2H-pyran-4-yl)amino)-pyrimidin-4-yl)-1H-imidazole-4-carboxamide]: the IC50 is < 0.05 µM against ERK1 (HTRF biochemical assay) and ≤ 0.05 µM on ERK2 (HTRF biochemical assay).

Regarding `Cc1cnc(N[C@H]2CCOC2)nc1-n1cnc(C(=O)NCc2cccc(C#N)c2)c1` [Example 310, (S)-N-(3-cyano-benzyl)-1-(5-methyl-2-((tetrahydrofuran-3-yl)amino)-pyrimidin-4-yl)-1H-imidazole-4-carboxamide], the IC50 at ERK1 (HTRF biochemical assay) was 0.1 to 0.5 µM; at ERK2 (HTRF biochemical assay), ≤ 0.05 µM.

Consider `Cc1cnc(N[C@H]2CCOC2)nc1-n1cnc(C(=O)NCc2cccc(C(F)(F)F)c2)c1` [Example 311, (S)-1-(5-methyl-2-((tetrahydrofuran-3-yl)amino)-pyrimidin-4-yl)-N-(3-(trifluoro-methyl)benzyl)-1H-imidazole-4-carboxamide], for which the values for the IC50 on ERK1 (HTRF biochemical assay) and against ERK2 (HTRF biochemical assay) were 0.05 to 0.1 µM and ≤ 0.05 µM, respectively.

With `Cc1cnc(NC2CCOCC2)nc1-n1cnc(C(=O)NC(C(N)=O)c2cccc(Cl)c2)c1` (centres unmarked) [Example 312, N-(2-amino-1-(3-chlorophenyl)-2-oxoethyl)-1-(5-methyl-2-((tetrahydro-2H-pyran-4-yl)amino)-pyrimidin-4-yl)-1H-imidazole-4-carboxamide], the 50% inhibitory concentration (IC50) was < 0.05 µM against ERK1 (HTRF biochemical assay) and ≤ 0.05 µM against ERK2 (HTRF biochemical assay).

As for `Cc1cnc(N[C@H]2CCOC2)nc1-n1cnc(C(=O)NCc2cc(Cl)cc(Cl)c2)c1` [Example 313, (S)-N-(3,5-dichloro-benzyl)-1-(5-methyl-2-((tetrahydrofuran-3-yl)amino)-pyrimidin-4-yl)-1H-imidazole-4-carboxamide], the IC50 against ERK1 (HTRF biochemical assay) is < 0.05 µM; on ERK2 (HTRF biochemical assay), ≤ 0.05 µM.

Regarding `Cc1cnc(N[C@H]2CCOC2)nc1-n1cnc(C(=O)NCc2ccc(Cl)c(Cl)c2)c1` [Example 314, (S)-N-(3,4-dichlorobenzyl)-1-(5-methyl-2-((tetrahydrofuran-3-yl)amino)pyrimidin-4-yl)-1H-imidazole-4-carboxamide], the IC50 against ERK1 (HTRF biochemical assay) is < 0.05 µM; on ERK2 (HTRF biochemical assay), ≤ 0.05 µM.

Take `Cc1cnc(N[C@H]2CCOC2)nc1-n1cnc(C(=O)NCc2cccc(Cl)c2)c1` [Example 318, (S)-N-(3-chloro-benzyl)-1-(5-methyl-2-((tetrahydrofuran-3-yl)amino)-pyrimidin-4-yl)-1H-imidazole-4-carboxamide]: the IC50 at ERK1 (HTRF biochemical assay) was < 0.05 µM; against ERK2 (HTRF biochemical assay), ≤ 0.05 µM.

In the case of `Cc1cnc(NC2CCOCC2)nc1-n1cnc(C(=O)N[C@H](CN(C)C)c2cccc(Cl)c2)c1` [Example 320, (S)-N-(1-(3-chlorophenyl)-2-(dimethylamino)-ethyl)-1-(5-methyl-2-((tetrahydro-2H-pyran-4-yl)amino)-pyrimidin-4-yl)-1H-imidazole-4-carboxamide], the results for the IC50 on ERK1 (HTRF biochemical assay) and against ERK2 (HTRF biochemical assay) were < 0.05 µM and ≤ 0.05 µM, respectively.

With `CNC[C@@H](NC(=O)c1cn(-c2nc(NC3CCOCC3)ncc2C)cn1)c1cccc(Cl)c1` [Example 326, (S)-N-(1-(3-chlorophenyl)-2-(methylamino)ethyl)-1-(5-methyl-2-((tetrahydro-2H-pyran-4-yl)amino)-pyrimidin-4-yl)-1H-imidazole-4-carboxamide], the IC50 is < 0.05 µM at ERK1 (HTRF biochemical assay) and ≤ 0.05 µM against ERK2 (HTRF biochemical assay).

On to `Cc1cnc(NC2CCOCC2)nc1-n1cnc(C(=O)NCc2nc(Cl)sc2C)c1` [Example 328, N-((2-chloro-5-methylthiazol-4-yl)methyl)-1-(5-methyl-2-((tetrahydro-2H-pyran-4-yl)amino)-pyrimidin-4-yl)-1H-imidazole-4-carboxamide], for which the results for the IC50 against ERK1 (HTRF biochemical assay) and at ERK2 (HTRF biochemical assay) were < 0.05 µM and ≤ 0.05 µM, respectively.

Turning to `Cc1cnc(Nc2ccc(F)cc2Cl)nc1-n1cnc(C(=O)NCc2cccc(Cl)c2CO)c1` [Example 329, N-(3-chloro-2-(hydroxymethyl)-benzyl)-1-(2-((2-chloro-4-fluoro-phenyl)amino)-5-methylpyrimidin-4-yl)-1H-imidazole-4-carboxamide], the IC50 against ERK1 (HTRF biochemical assay) is < 0.05 µM; on ERK2 (HTRF biochemical assay), ≤ 0.05 µM.

Regarding `Cc1cnc(NC2CCOCC2)nc1-n1cnc(C(=O)NCc2ccc(Cl)c(CO)c2)c1` [Example 330, N-(4-chloro-3-(hydroxymethyl)-benzyl)-1-(5-methyl-2-((tetrahydro-2H-pyran-4-yl)amino)-pyrimidin-4-yl)-1H-imidazole-4-carboxamide], the IC50 was < 0.05 µM against ERK1 (HTRF biochemical assay) and ≤ 0.05 µM at ERK2 (HTRF biochemical assay).

For the compound `Cc1cnc(N[C@H]2CCOC2)nc1-n1cnc(C(=O)NCc2cccc(Cl)c2C)c1` [Example 331, (S)-N-(3-chloro-2-methylbenzyl)-1-(5-methyl-2-((tetrahydrofuran-3-yl)amino)pyrimidin-4-yl)-1H-imidazole-4-carboxamide], the IC50 was < 0.05 µM at ERK1 (HTRF biochemical assay) and ≤ 0.05 µM against ERK2 (HTRF biochemical assay).

As to `Cc1cnc(Nc2ccc3c(c2)OC(F)(F)O3)nc1-n1cnc(C(=O)NCc2cccc(Cl)c2CO)c1` [Example 332, N-(3-chloro-2-(hydroxymethyl)-benzyl)-1-(2-((2,2-difluorobenzo[d] [1,3]dioxol-5-yl)amino)-5-methylpyrimidin-4-yl)-1H-imidazole-4-carboxamide], the figures for the IC50 against ERK1 (HTRF biochemical assay) and against ERK2 (HTRF biochemical assay) were < 0.05 µM and ≤ 0.05 µM, respectively.
